Counter-ions that a name gives are not always drawn.
Columns and labels:
Set-up in all cases: species or system Homo sapiens
[1] = Inhibition of purified FGFR (unknown origin)
[2] = Inhibition of purified PDGFR (unknown origin)
[3] = Inhibition of purified CDK2/Cyclin A (unknown origin)

Measured: IC50

C=CC(=O)Nc1cc2c(Nc3ccc(F)c(Cl)c3)ncnc2cc1OCCCN1CCOCC1 [CANERTINIB DIHYDROCHLORIDE]
> 50 µM: all assays above
